Source: US20110172296A1, “MODULATION OF TRANSFORMING GROWTH FACTOR-BETA 1 EXPRESSION” (priority 2010, published 2011)
Several values for one entry are separate records, joined by “and”; a condition that tells them apart may be missing. Equal entries are not always repeated. Entries after “also recorded” stand apart in the source; their conditions may differ. In the oligonucleotide strings, read from the 5' end, every base follows the letter of its sugar. An asterisk marks phosphorothioate; unmarked linkages are phosphodiester. Other units and linkages are bracketed, terminal groups are in braces. A string of capitals states the bases alone. e = 2'-O-(2-methoxyethyl) (MOE); [5mC] = 5-methylcytosine; d = 2'-deoxy (DNA)

Experiments:
human TGF-beta1 mRNA [1] = assay: Dose-dependent antisense inhibition of human TGF-beta1 in HuVEC cells, Lipofectamine 2000, 0.3292-80 nM, comparison with oligos of U.S. Pat. No. 6,436,909 (Example 4); format: cell-based
Procedure: The dose-dependent antisense inhibition potential of these gapmers was compared with that of Oligo IDs 104992 and 1138498 from U.S. Pat. No. 6,436,909. Cells were plated at a density of 5,000 cells per well and transfected using Lipofectamine™ 2000 reagent with 0.3292 nM, 0.9877 nM, 2.963 nM, 8.8889 nM, 26.6667 nM, and 80 nM concentrations of antisense oligonucleotide for 4 hours, as specified in Table 4. After a recovery period of approximately 16 hours, RNA was isolated from the cells and TGF-beta1 mRNA levels were measured by quantitative real-time PCR. Human TGF-beta1 primer probe set RTS 2980 was used to measure mRNA levels. TGF-beta1 mRNA levels were adjusted according to total RNA content, as measured by RIBOGREEN®. Results are presented as percent inhibition of TGF-beta1, relative to untreated control cells. […] All the antisense oligonucleotides in Table 4 target human TGF-beta1 mRNA (SEQ ID NO: 1).

human TGF-beta1 mRNA [2] = assay: Dose-dependent confirmation of antisense inhibition of human TGF-beta1 in HuVEC cells after large-scale synthesis, Lipofectamine 2000, 0.007-15 nM (Example 5); format: cell-based; conditions: for percent inhibition of TGF-beta1: Lipofectamine 2000
Procedure: Cells were plated at a density of 5,000 cells per well and transfected using Lipofectamine™ 2000 reagent with 0.007 nM, 0.021 nM, 0.062 nM, 0.185 nM, 0.556 nM, 1.667 nM, 5 nM, and 15 nM concentrations of antisense oligonucleotide for 4 hours, as specified in Table 5. After a recovery period of approximately 16 hours, RNA was isolated from the cells and TGF-beta1 mRNA levels were measured by quantitative real-time PCR. Human TGF-beta1 primer probe set RTS 2980 was used to measure mRNA levels. TGF-beta1 mRNA levels were adjusted according to total RNA content, as measured by RIBOGREEN®. Results are presented as percent inhibition of TGF-beta1, relative to untreated control cells.

human TGF-beta1 mRNA [3] = assay: Antisense inhibition of human TGF-beta1 mRNA in HuVEC cells, single 10 nM dose, Lipofectamine 2000 (Example 2); format: cell-based; conditions: for % inhibition: 10 nM oligonucleotide, HuVEC, relative to untreated control cells, gapmers targeted to SEQ ID NO: 1; for inhibition of a TGF-beta1 mRNA: threshold lists of Oligo IDs, 10 nM
How it was run: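 Percent inhibition relative to untreated controls, from qRT-PCR of mRNA corrected for total RNA (RIBOGREEN). Cells were exposed 4 h to 10 nM phosphorothioate 2-13-5 MOE gapmers with Lipofectamine 2000 at 5,000 cells/well. RNA was harvested after roughly 24 h recovery.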

BALB/c mice [4] = assay: Tolerability in BALB/c mice: plasma transaminases ALT and AST (Example 7); conditions: for aspartate transaminase levels: plasma
human TGF-beta1 mRNA [5] = assay: Dose-dependent antisense inhibition of human TGF-beta1 in HuVEC cells, Lipofectamine 2000, 0.9375-30 nM (Example 3); format: cell-based; conditions: for percent inhibition of TGF-beta1: Lipofectamine 2000
Procedure: Cells were plated at a density of 5,000 cells per well and transfected using Lipofectamine™ 2000 reagent with 0.9375 nM, 1.875 nM, 3.75 nM, 7.5 nM, 15 nM, and 30 nM concentrations of antisense oligonucleotide for 4 hours, as specified in Table 3. After a recovery period of approximately 16 hours, RNA was isolated from the cells and TGF-beta1 mRNA levels were measured by quantitative real-time PCR. Human TGF-beta1 primer probe set RTS 2980 (forward sequence CTCTCCGACCTGCCACAGA, SEQ ID NO: 160; reverse sequence […], SEQ ID NO: 53; probe sequence CCCTATTCAAGACCACCCACCTTCTGGTX, SEQ ID NO: 161) was used to measure mRNA levels. TGF-beta1 mRNA levels were adjusted according to total RNA content, as measured by RIBOGREEN®. Results are presented as percent inhibition of TGF-beta1, relative to untreated control cells.

human TGF-beta1 mRNA [6] = assay: Dose-dependent confirmation of antisense inhibition of human TGF-beta1 in HuVEC cells, electroporation (Example 6); format: cell-based
Procedure: The gapmers from Example 5 (see Table 5) were also tested at various doses in HuVEC cells using electroporation as the transfection reagent. Cells were plated at a density of 20,000 cells per well and transfected using electroporation with 0.15625 nM, 0.3125 nM, 0.625 nM, 1.25 nM, 2.5 nM, 5 nM, 10 nM, and 20 nM concentrations of antisense oligonucleotide for 4 hours, as specified in Table 6. After a recovery period of approximately 16 hours, RNA was isolated from the cells and TGF-beta1 mRNA levels were measured by quantitative real-time PCR. TGF-beta1 mRNA levels were adjusted according to total RNA content, as measured by RIBOGREEN®. Results are presented as percent inhibition of TGF-beta1, relative to untreated control cells.

[7] = tested on: bleomycin-induced skin fibrosis in C57BL/6 mice; assay: Bleomycin-induced murine model of skin fibrosis: skin thickness and breaking strength (Example 10); format: in vivo, mouse; conditions: for bleomycin-induced skin fibrosis and thickening: C57BL/6 mice, 5 mg intradermally twice a week, Day 18
Procedure: The ability of a TGF-beta1 ASO to reduce the induction of skin fibrosis in a bleomycin-induced model of dermal fibrosis was evaluated.
Two groups of 8 C57BL/6 mice each were treated with bleomycin every other day for 19 days. Bleomycin, at a concentration of 10 mg/mL in PBS and at a volume of 0.1 mL, was injected subcutaneously into the shaved backs of the mice. The injection site was divided into 4 quadrants. The 100 μL volume of bleomycin was divided into four 25 μL aliquots injected at 90 degree intervals, to the upper left, upper right, lower left, and lower right “quadrants”.
Each of the two groups was treated intradermally with PBS (vehicle) or a 5 mg dose of a TGF-beta1 antisense oligonucleotide (Oligo ID 433849) twice a week, starting from day 1 of bleomycin administration. Animals were sacrificed on Day 18 of the study. Skin thickness was measured by skin calipers on 6-mm punch biopsy specimens obtained from the upper back of the mice. Breaking strength of the skin was measured on the 6-mm punch biopsy specimens using a tensiometer (Series EG2 digital force gauge; Mark-10, Copiague, N.Y.), and the point of maximal stress before tearing of the biopsy specimen was recorded. All measurements were undertaken in a blinded manner.

BALB/c mice [8] = assay: Tolerability in BALB/c mice: liver, kidney and spleen weights (Example 8); format: in vivo, mouse
Procedure: The mice were sacrificed 2 days after the last administration and liver, spleen and kidney weights were measured. Plasma transaminase levels were also evaluated.
The weights of liver, kidney and spleen of the mice were measured after 4 weeks and liver weights are presented in Table 10 as a percentage change compared to the corresponding weights in the PBS control. The percentage changes in kidney and spleen weight in the treated mice compared to the PBS control were negligible and are not shown.

414040 (antisense e[5mC]*eT*d[5mC]*dT*d[5mC]*dT*d[5mC]*d[5mC]*dA*dT*d[5mC]*dT*dT*dT*dA*eA*eT*eG*eG*eG) [compound 414040]
percent inhibition of TGF-beta1 (human TGF-beta1 mRNA [1]; 0.3292 nM): 85%
percent inhibition of TGF-beta1 (human TGF-beta1 mRNA [1]; 0.9877 nM): 90%
percent inhibition of TGF-beta1 (human TGF-beta1 mRNA [1]; 2.963 nM): 94%
percent inhibition of TGF-beta1 (human TGF-beta1 mRNA [1]; 8.8889 nM): 94%
percent inhibition of TGF-beta1 (human TGF-beta1 mRNA [1]; 26.6667 nM): 94%
percent inhibition of TGF-beta1 (human TGF-beta1 mRNA [1]; 80.0 nM): 93%
percent inhibition of TGF-beta1 (human TGF-beta1 mRNA [2]; 0.007 nM): 19%
percent inhibition of TGF-beta1 (human TGF-beta1 mRNA [2]; 0.021 nM): 45%
percent inhibition of TGF-beta1 (human TGF-beta1 mRNA [2]; 0.062 nM): 58%
percent inhibition of TGF-beta1 (human TGF-beta1 mRNA [2]; 0.185 nM): 76%
percent inhibition of TGF-beta1 (human TGF-beta1 mRNA [2]; 0.556 nM): 83%
percent inhibition of TGF-beta1 (human TGF-beta1 mRNA [2]; 1.667 nM): 89%
percent inhibition of TGF-beta1 (human TGF-beta1 mRNA [2]; 5 nM): 92%
percent inhibition of TGF-beta1 (human TGF-beta1 mRNA [2]; 15 nM): 93%
IC50 (human TGF-beta1 mRNA [2]; Lipofectamine 2000, Example 5): 0.04 nM
% inhibition (human TGF-beta1 mRNA [3]): 90%
inhibition of a TGF-beta1 mRNA (human TGF-beta1 mRNA [3]): 60% and 65% and 70% and 75% and 80% and 85% and 90%
alanine transaminase levels (BALB/c mice [4]; 25 mg/kg twice a week, Week 2): 178 IU/L
alanine transaminase levels (BALB/c mice [4]; 25 mg/kg twice a week, Week 4): 2248 IU/L
aspartate transaminase levels (BALB/c mice [4]; 25 mg/kg twice a week, Week 2): 128 IU/L
aspartate transaminase levels (BALB/c mice [4]; 25 mg/kg twice a week, Week 4): 1405 IU/L
alanine transaminase levels (BALB/c mice [4]; 50 mg/kg twice a week, Week 2): 837 IU/L
alanine transaminase levels (BALB/c mice [4]; 50 mg/kg twice a week, Week 4): 4997 IU/L
aspartate transaminase levels (BALB/c mice [4]; 50 mg/kg twice a week, Week 2): 529 IU/L
aspartate transaminase levels (BALB/c mice [4]; 50 mg/kg twice a week, Week 4): 2237 IU/L
increase in ALT levels (BALB/c mice [4]; compared to placebo (PBS) controls): > 160 fold and 166 fold
percent inhibition of TGF-beta1 (human TGF-beta1 mRNA [5]; 0.9375 nM): 72%
percent inhibition of TGF-beta1 (human TGF-beta1 mRNA [5]; 1.875 nM): 83%
percent inhibition of TGF-beta1 (human TGF-beta1 mRNA [5]; 3.75 nM): 90%
percent inhibition of TGF-beta1 (human TGF-beta1 mRNA [5]; 7.5 nM): 94%
percent inhibition of TGF-beta1 (human TGF-beta1 mRNA [5]; 15 nM): 95%
percent inhibition of TGF-beta1 (human TGF-beta1 mRNA [5]; 30 nM): 95%
percent inhibition of TGF-beta1 mRNA relative to untreated control cells (human TGF-beta1 mRNA [6]; 0.15625 nM oligonucleotide): 57%
percent inhibition of TGF-beta1 mRNA relative to untreated control cells (human TGF-beta1 mRNA [6]; 0.3125 nM oligonucleotide): 68%
percent inhibition of TGF-beta1 mRNA relative to untreated control cells (human TGF-beta1 mRNA [6]; 0.625 nM oligonucleotide): 81%
percent inhibition of TGF-beta1 mRNA relative to untreated control cells (human TGF-beta1 mRNA [6]; 1.25 nM oligonucleotide): 91%
percent inhibition of TGF-beta1 mRNA relative to untreated control cells (human TGF-beta1 mRNA [6]; 2.5 nM oligonucleotide): 93%
percent inhibition of TGF-beta1 mRNA relative to untreated control cells (human TGF-beta1 mRNA [6]; 5.00 nM oligonucleotide): 95%
percent inhibition of TGF-beta1 mRNA relative to untreated control cells (human TGF-beta1 mRNA [6]; 10.00 nM oligonucleotide): 94%
percent inhibition of TGF-beta1 mRNA relative to untreated control cells (human TGF-beta1 mRNA [6]; 20 nM oligonucleotide): 94%

Oligo ID 433849: rat specific TGF-beta1 antisense oligonucleotide; SEQ ID NO. 166 (antisense GTCCTTAAATACAGCCCCGG; listed as DNA, chemistry not given here) [rat specific TGF-beta1 antisense oligonucleotide; 166]
bleomycin-induced skin fibrosis and thickening [7]: significantly reduced
bleomycin-induced skin fibrosis and thickening ([7]; listed as TGF-beta1 ASO): significantly reduced; also recorded: reduced the severity

105204 (antisense GTCCACCATTAGCACGCGGG; chemistry not given here) [compound 105204]
Liver % Weight change relative to PBS control (BALB/c mice [8]; 25 mg/kg twice a week for 4 weeks): +28%
Liver % Weight change relative to PBS control (BALB/c mice [8]; 50 mg/kg twice a week for 4 weeks): +73%
increase in liver weight (BALB/c mice [8]; 25 or 50 mg/kg twice a week for 4 weeks, vs PBS control): > 70%

bleomycin [reference compound]
skin thickness ([7]; bleomycin-treated mice, from 30 mm): 40-45 mm
breaking strength of skin ([7]; bleomycin-treated mice, untreated skin typically 0.2 kg tension): approximately 0.47 kg

414022 (antisense eG*eG*dG*d[5mC]*dT*d[5mC]*d[5mC]*dG*dG*dT*dT*d[5mC]*dT*dG*d[5mC]*eA*e[5mC]*eT*e[5mC]*eT) [compound 414022]
% inhibition (human TGF-beta1 mRNA [3]): 84%
inhibition of a TGF-beta1 mRNA (human TGF-beta1 mRNA [3]): 60% and 65% and 70% and 75% and 80%
percent inhibition of TGF-beta1 (human TGF-beta1 mRNA [5]; 0.9375 nM): 31%
percent inhibition of TGF-beta1 (human TGF-beta1 mRNA [5]; 1.875 nM): 50%
percent inhibition of TGF-beta1 (human TGF-beta1 mRNA [5]; 3.75 nM): 76%
percent inhibition of TGF-beta1 (human TGF-beta1 mRNA [5]; 7.5 nM): 85%
percent inhibition of TGF-beta1 (human TGF-beta1 mRNA [5]; 15 nM): 91%
percent inhibition of TGF-beta1 (human TGF-beta1 mRNA [5]; 30 nM): 92%
IC50 (human TGF-beta1 mRNA [5]; Lipofectamine 2000, Example 3): 1.67 nM
